Data taken from patent US20120065170A1, “Antimicrobial Cyclocarbonyl Heterocyclic Compounds For Treatment Of Bacterial Infections” (priority 2010, published 2012).
In brackets after ≈: the same amount, converted by molar mass. Like-named read-outs stand apart in the source and are kept apart here.

Assays:
H. influenzae = assay: MIC against isolates of H. influenzae; format: cell-based, Haemophilus influenzae; settings: for MIC: Haemophilus influenzae
Text: (§1) Compounds of this invention can have useful activity against a variety of pathogenic microorganisms. The in vitro activity of compounds of this invention can be assessed by standard testing procedures such as the determination of minimum inhibitory concentration (MIC) by agar dilution as described in “Approved Standard. Methods for Dilution Antimicrobial Susceptibility Tests for Bacteria That Grow Aerobically”, 3rd. ed., published 1993 by the National Committee for Clinical Laboratory Standards, Villanova, Pa., USA. Minimum inhibitory concentration (MIC) refers to the lowest concentration of drug (μg/mL) that inhibits visible growth of the organism. Lower MIC values indicate a higher antibacterial activity. Typically, compounds of the present invention have useful potency against Gram-positive or Gram-negative pathogens with MIC values of ≦8 μg/mL. To measure useful antibacterial activity against multiple bacterial isolates or strains, MIC90 (or minimal inhibitory concentration of the drug that inhibits visible growth of 90% of the microbes in each bacterial specie panel) is determined. Lower MIC number indicates an elevated degree of useful antibacterial activity, while higher MIC number indicates a reduced antibacterial activity. An agent with too high MIC against a bacterial pathogen can not be used for the treatment of infections caused by such microbial species.
The useful activity of representative compounds of the present invention against several isolates of H. influenzae is illustrated by the MIC data of Table 3. H. influenzae is a fastidious Gram-negative pathogen implicated in multiple infections, including pneumonia and bacterial meningitis. No oxazolidinone agent is presently approved for the treatment of H. influenzae infections.

[1] = tested on: linezolid-resistant E. faecalis; assay: MIC against linezolid-resistant E. faecalis strains; format: cell-based, Enterococus faecalis; settings: one value per group of strains; for MIC: Enterococcus faecalis, read-out: E. faecalis (no. of strains) MIC
Text: as §1
(§2) The useful activity of representative compounds of the present invention against several isolates of linezolid-resistant Staphylococcus aureus, Enterococus faecalis and Enterococcu faecium illustrated by the MIC data of Table 2.

Enterococci = assay: MIC90 against linezolid-susceptible Enterococci; format: cell-based; settings: for MIC90: Enterococcus faecalis, 34 strains, linezolid-susceptible
Text: as §1
(§3) The useful activity of compounds of the present invention against an expanded set of clinical isolates of Staphylococcus aureus (including methicillin-resistant strain, MRSA), Enterococci (including Enterococcus faecalis and Enterococus faecium), and […] is illustrated by the MIC90 data in Table 1.

reticulocytes = assay: 5-days mouse sub-acute toxicity test (myelosuppression, reticulocyte count); format: in vivo; settings: for Ratio for reticulocyte count relative to that for compound of Example 1 / fold drop in the reticulocyte cells counts compared to compound of Example 1: 37.5 mg/kg/day twice-daily, day 5
Description: The potential of representative compounds of this invention for myelosuppression has been evaluated in a 5-days mouse sub-acute toxicity test. For comparison purposes, Reference Compound 14 (Example 143 of publication US 2003/0166620) and Reference Compound 15 (TR-700 or torezolid; publications PCT WO2005/058886 and PCT WO2010/042887) have been included. The compounds were dosed to mice at 37.5 mg/kg/day on a twice-daily schedule. On day 5, blood was harvested for hematology testing. The toxicity was evaluated based on the reduction in the number of reticulocytes, previously described as the key marker for myelosuppression signs in pre-clinical testing of oxazolidinones, including linezolid. Thus, a higher degree of a reduction in the reticulocyte count is indicative of an elevated toxicity, while a lower drop in the reticulocyte count indicates a reduced propensity to the myelosuppression effect on the blood cells.

S. pneumoniae = assay: MIC90 against linezolid-susceptible S. pneumoniae; format: cell-based, Streptococcus pneumoniae; settings: for MIC90: Streptococcus pneumoniae, read-out: S. pneumoniae (34 strains) MIC90
Text: as §1, §3

S. aureus = assay: MIC90 against linezolid-susceptible clinical isolates of S. aureus; format: cell-based, Staphylococcus aureus; settings: for MIC90: Staphylococcus aureus, 34 strains, linezolid-susceptible, including MRSA
Text: as §1, §3

[2] = tested on: linezolid-resistant E. faecium; assay: MIC against linezolid-resistant E. faecium strains; format: cell-based, Enterococcus faecium; settings: one value per group of strains; for MIC: Enterococcus faecium, read-out: E. faecium (no. of strains) MIC
Text: as §1, §2

[3] = tested on: key Gram-positive pathogens; assay: MIC against key Gram-positive pathogens, further compounds (tests of Table 1); format: cell-based; settings: in the tests of Table 1
Text: as §1, §3

[4] = tested on: linezolid-resistant bacterial strains; settings: cited from earlier work
Staphylococcus species = settings: cited from earlier work
[5] = tested on: linezolid-resistant S. aureus; assay: MIC against linezolid-resistant S. aureus strains; format: cell-based, Staphylococcus aureus; settings: one value per group of strains; for MIC: Staphylococcus aureus, read-out: S. aureus (no. of strains) MIC
Text: as §1, §2

Haemophilus influenzae = settings: reported value; cited from earlier work
[6] = one value per group of strains, read-out: H. influenzae (no. of strains) MIC
[7] = read-out: MIC values against H. influenzae as summarised in text, summary of Table 3
[8] = versus Reference Compound 15, Table 1 data
[9] = mice, 37.5 mg/kg/day on a twice-daily schedule, blood on day 5
[10] = 34 strains, linezolid-susceptible

SMILES | MIC (H. influenzae; [6]) | H. influenzae (no. of strains) MIC (H. influenzae; one value per group of strains) | MIC [1] | MIC90 (Enterococci) | Ratio for reticulocyte count relative to that for compound of Example 1 (reticulocytes; mice) | MIC90 (S. aureus) | MIC [2] | MIC values compared to linezolid or Reference Compound 15 [3] | also measured
O=C1O[C@@H](CO)CN1c1ccc(-c2ccc(N3CCOC3=O)nc2)c(F)c1 [Example 1] | 2 µg/mL (≈ 5.36 µM) | 4 (1 strain)^ μg/mL | 0.5 µg/mL (≈ 1.34 µM) | 0.25 µg/mL (≈ 0.67 µM) | 1 | 0.125 µg/mL (≈ 0.335 µM) | 0.5 µg/mL (≈ 1.34 µM) |  | MIC (H. influenzae; [7]): < 4 µg/mL; E. faecalis (no. of strains) MIC [1]: 1 (3 strains) μg/mL; MIC90 fold lower than Reference Compound 15, Enterococci species (Enterococci; [8]): ~2 fold; MIC90 fold lower than linezolid, Enterococci species (Enterococci; versus linezolid, Table 1 data): ~8 fold; Reticulocyte count on Day 5, cell count (reticulocytes; [9]): 1.275e+11 L⁻¹; MIC90 (S. pneumoniae; [10]): 0.06 µg/mL (≈ 0.161 µM); MIC90 fold lower than Reference Compound 15, S. pneumoniae (S. pneumoniae; [8]): about 4 fold; MIC90 fold lower than linezolid, S. pneumoniae (S. pneumoniae; versus linezolid, Table 1 data): about 16 fold; MIC90 fold lower than Reference Compound 15, S. aureus (S. aureus; [8]): about 4 fold; MIC90 fold lower than linezolid, S. aureus (S. aureus; versus linezolid, Table 1 data): about 16 fold
O=C1O[C@@H](CO)CN1c1ccc(-c2ccc(N3CCNC3=O)nc2)c(F)c1 [Example 7] |  |  |  |  |  |  | 0.5 µg/mL (≈ 1.34 µM) | lower range MIC values | E. faecium (no. of strains) MIC [2]: 1 (4 strains) μg/mL
O=C1O[C@@H](CO)CN1c1ccc(-c2ccc(N3CCCC3=O)nc2)c(F)c1 [Example 10] | 4 µg/mL (≈ 10.8 µM) |  | 1 µg/mL (≈ 2.69 µM) |  |  |  | 1 µg/mL (≈ 2.69 µM) | lower range MIC values | MIC (H. influenzae; [7]): < 4 µg/mL; E. faecalis (no. of strains) MIC [1]: 2 (3 strains) μg/mL
O=C1O[C@@H](CO)CN1c1ccc(-c2ccc(N3CCOC3=O)nc2)cc1 [Example 13] | 4 µg/mL (≈ 11.3 µM) |  |  |  |  |  |  | lower range MIC values | 
CC(=O)NC[C@H]1CN(c2ccc(N3CCOCC3)c(F)c2)C(=O)O1 [Linezolid, linezolid] | 8 µg/mL (≈ 23.7 µM) | 16 (2 strains) μg/mL | 16 µg/mL (≈ 47.4 µM) | 2 µg/mL (≈ 5.93 µM) |  | 2 µg/mL (≈ 5.93 µM) | 16 µg/mL (≈ 47.4 µM) |  | MICs against linezolid-resistant bacterial strains [4]: ≥ 8 µg/mL; MIC against Staphylococci species (such as S. aureus) (Staphylococcus species; generally displayed): 2 to 4 µg/mL; useful MIC90 against Gram-positive Staphylococcus species (Staphylococcus species; species for which the drug is indicated): 2 to 4 µg/mL; MIC90 (S. pneumoniae; [10]): 1 µg/mL (≈ 2.96 µM); MIC [5]: 16 µg/mL (≈ 47.4 µM); S. aureus (no. of strains) MIC [5]: >16 (3 strains) μg/mL; MIC90 against Haemophilus influenzae (typical) (Haemophilus influenzae): 16 µg/mL (≈ 47.4 µM)
CC(=O)NC[C@H]1CN(c2ccc(-c3ccc(N4CCOC4=O)nc3)c(F)c2)C(=O)O1 [Ref. Cpd. 14, N-[[(5S)-3-[3-fluoro-4-[6-(2-oxooxazolidin-3-yl)-3-pyridyl]phenyl]-2-oxo-oxazolidin-5-yl]methyl]acetamide] |  |  |  |  | 0.39 |  |  |  | Reticulocyte count on Day 5, cell count (reticulocytes; [9]): 5e+10 L⁻¹; fold drop in the reticulocyte cells counts compared to compound of Example 1 (reticulocytes; mice): ~2.6 fold
Cn1nnc(-c2ccc(-c3ccc(N4C[C@H](CO)OC4=O)cc3F)cn2)n1 [Ref. Cpd. 15, (5R)-3-[3-fluoro-4-[6-(2-methyltetrazol-5-yl)-3-pyridyl]phenyl]-5-(hydroxymethyl)oxazolidin-2-one] | > 16 µg/mL | 8 (4 strains) μg/mL | 4 µg/mL (≈ 10.8 µM) | 0.5 µg/mL (≈ 1.35 µM) | 0.15 | 0.5 µg/mL (≈ 1.35 µM) | 4 µg/mL (≈ 10.8 µM) |  | fold drop in the reticulocyte cells counts compared to compound of Example 1 (reticulocytes; mice): ~2.6 fold; Reticulocyte count on Day 5, cell count (reticulocytes; mouse, in vivo, 37.5 mg/kg/day, 5 days): 1.91e+10 L⁻¹; MIC90 (S. pneumoniae): 0.25 µg/mL (≈ 0.675 µM); MIC [5]: 8 µg/mL (≈ 21.6 µM); S. aureus (no. of strains) MIC [5]: 4 (2 strains) μg/mL; E. faecium (no. of strains) MIC [2]: 2 (1 strain)^ μg/mL
